{
  "source": "patent US4382088A",
  "about": "“4,7-Dihydro-4,7-dioxi-1H-cyclohepta[b]pyridine derivatives” (Ayerst, McKenna & Harrison, Inc., priority 1981, dated 1983)",
  "key": {"aldose reductase [1]": {"tested_on": "aldose reductase", "conditions": "Dvornik et al. 1973; Peterson et al. 1979; cited from earlier work"}, "aldose reductase [2]": {"biological_target": "T1, aldose reductase (Bos taurus, UniProt P16116)", "T1 construct": "preparation of the enzyme from bovine lens; from tissue; host or cells: bovine lens", "experiment": "in vitro aldose reductase inhibition (modified Hayman and Kinoshita procedure, enzyme from bovine lens)", "format": "biochemical", "conditions": "for inhibition at 10 µM: 10^-5 molar, read-out: % Inhibition at Different Molar Concentrations (in vitro), 10^-5; for inhibition at 1 µM: 10^-6 molar, read-out: % Inhibition at Different Molar Concentrations (in vitro), 10^-6; for inhibition at 0.1 µM: 10^-7 molar, read-out: % Inhibition at Different Molar Concentrations (in vitro), 10^-7", "procedure": "In the present case the procedure of Hayman and Kinoshita is modified in that the final chromatography step is omitted in the preparation of the enzyme from bovine lens.\nThe following results were obtained when the foregoing listed compounds of formula I were evaluated in the above in vitro test."}, "[3]": {"experiment": "hygroscopicity of analytical sample", "format": "physicochemical", "conditions": "analytical sample dried under reduced pressure at 140° C.", "procedure": "3-(Ethoxycarbonyl)-4,7-dihydro-6-methoxy-4,7-dioxo-1H-cyclohepta[b]pyridine-1-acetic acid ethyl ester (2.5 g), described in example 5, was heated at reflux in 15% (w/v) aqueous HCl for 2 hr. The resulting precipitate was collected, washed with water and acetone, and recrystallized from water to give 1.8 g of the title compound; mp 272°-274° C.; nmr (DMSO-d6) δ3.95 (s, 3H), 5.5 (s, 2H), 7.28 & 7.75 (2d, 2H), 7.95 (s, 1H), 9.0 (1H, s); ir (Nujol*) 2900, 1700, 1565, 1265, 1165 cm^-1; uv λmax (MeOH) 347 nm (ε11,630), 306 (10,470), 266 (21,365), 249 (32,290). An analytical sample dried under reduced pressure at 140° C. was hygroscopic; Anal Calcd for C14 H11 NO7 : C, 55.09% H, 3.63% N, 4.59%; Found: C, 54.41% H, 3.60% N, 4.55%."}},
  "data": [
    {"smiles": "O=C(O)CN1C(=O)c2cccc3cccc(c23)C1=O", "note": "[1,3-Dioxo-1H-benz[de]isoquinoline-2(3H)-acetic acid]", "values": [
      {"measurement": "aldose reductase inhibition reported in the literature, in words", "setting": "aldose reductase [1]", "value": "effective inhibitor of aldose reductase"}
    ]},
    {"smiles": "CCOC(=O)COc1cc2c(=O)c(C(=O)OCC)cn(CC(=O)OCC)c2ccc1=O", "note": "[Example 5 (R^3 = OCH2 COOC2 H5), 3-(ethoxycarbonyl)-6-[(2-ethoxy-2-oxoethyl)oxy]-4,7-dihydro-4,7-dioxo-1H-cyclohepta[b]pyridine-1-acetic acid ethyl ester]", "values": [
      {"measurement": "inhibition at 10 µM", "setting": "aldose reductase [2]", "value": 40, "unit": "%"}
    ]},
    {"smiles": "O=C(O)COc1cc2c(=O)c(C(=O)O)cn(CC(=O)O)c2ccc1=O", "note": "[Example 7 (R^3 = OCH2 COOH), 3-carboxy-6-[(carboxymethyl)oxy]-4,7-dihydro-4,7-dioxo-1H-cyclohepta[b]pyridine-1-acetic acid monohydrate]", "values": [
      {"measurement": "inhibition at 10 µM", "setting": "aldose reductase [2]", "value": 97, "unit": "%"},
      {"measurement": "inhibition at 1 µM", "setting": "aldose reductase [2]", "value": 88, "unit": "%"},
      {"measurement": "inhibition at 0.1 µM", "setting": "aldose reductase [2]", "value": 31, "unit": "%"}
    ]},
    {"smiles": "COc1cc2c(=O)c(C(=O)O)cn(CC(=O)O)c2ccc1=O", "note": "[Example 7 (R^3 = OCH3), 3-Carboxy-4,7-dihydro-6-methoxy-4,7-dioxo-1H-cyclohepta[b]pyridine-1-aceticAcid]", "values": [
      {"measurement": "inhibition at 10 µM", "setting": "aldose reductase [2]", "value": 89, "unit": "%"},
      {"measurement": "inhibition at 1 µM", "setting": "aldose reductase [2]", "value": 79, "unit": "%"},
      {"measurement": "inhibition at 0.1 µM", "setting": "aldose reductase [2]", "value": 30, "unit": "%"},
      {"measurement": "hygroscopicity", "setting": "[3]", "value": "hygroscopic"}
    ]},
    {"smiles": "O=C(O)Cn1cc(C(=O)O)c(=O)c2cc(OCc3ccccc3)c(=O)ccc21", "note": "[Example 8, 6-Benzyloxy-3-carboxy-4,7-dihydro-4,7-dioxo-1H-cyclohepta[b]pyridine-1-acetic Acid]", "values": [
      {"measurement": "inhibition at 10 µM", "setting": "aldose reductase [2]", "value": 88, "unit": "%"},
      {"measurement": "inhibition at 1 µM", "setting": "aldose reductase [2]", "value": 79, "unit": "%"},
      {"measurement": "inhibition at 0.1 µM", "setting": "aldose reductase [2]", "value": 37, "unit": "%"}
    ]},
    {"smiles": "O=C1NC(=O)[C@@]2(CCOc3ccc(F)cc32)N1", "note": "[sorbinil, (S)-6-Fluoro-2,3-dihydrospiro(4H-1-benzopyran-4,4'-imidazolidine)-2',5'-dione]", "values": [
      {"measurement": "aldose reductase inhibition reported in the literature, in words", "setting": "aldose reductase [1]", "value": "aldose reductase inhibiting properties"}
    ]}
  ]
}
